{"source": "patent US20040014144A1", "about": "“Method of screening for substances acting on MSK1” (Leo Pharmaceutical Products Ltd. A/S, priority 1999, published 2004)", "key": {"TNF-α secretion in PBMC": {"system": "TNF-α secretion in PBMC", "assay": "LPS induced secretion of TNF-α in PBMC, enzyme immuno assay", "assay_type": "cell-based, human", "conditions": "for inhibition of secretion of TNF-α: 30 min preincubation, 1 μg/ml LPS 18 hours", "protocol": "(§1) The mononuclear cells (PBMC) were isolated from human peripheral blood by Lymphoprep® fractionation (Nycomed, Norway) and the THP-1 cells were obtained from the American Type Culture Collection (Accession No. TIB-202). Both cell lines were suspended in RPMI 1640 with 2% fetal calf serum (FCS), 2 mM L-glutamine, 100 U/ml penicillin and […] streptomycin. […] Louis, Mo., USA). […] The levels of IL-1β and TNF-α were measured in the culture supernatant by enzyme immuno assays (monoclonal antibodies were obtained from R & D Systems, Abingdon, UK)."}, "IL-1β secretion in PBMC": {"system": "IL-1β secretion in PBMC", "assay": "LPS induced secretion of IL-1β in PBMC, enzyme immuno assay", "assay_type": "cell-based, human", "conditions": "for inhibition of secretion of IL-1β: 30 min preincubation, 1 μg/ml LPS 18 hours", "protocol": "as §1"}, "[1]": {"system": "TNF-α secretion in THP-1 cells", "assay": "LPS induced secretion of TNF-α in THP-1 cells, enzyme immuno assay", "assay_type": "cell-based, human", "conditions": "for inhibition of secretion of TNF-α: THP-1 cells, 1 μM of each compound, 60 min preincubation, 1 μg/ml LPS 5 hours", "protocol": "as §1"}, "[2]": {"system": "NFκB transcriptional activity in THP-1 cells", "assay": "NFκB-luciferase reporter gene assay in LPS stimulated THP-1 cells", "assay_type": "cell-based, human", "conditions": "for reporter gene (luciferase) activity, % of the control value: THP-1 cells transfected with pBIIX, 1 μM of each compound, 1 hour pretreatment, 1 μg/ml LPS 5 h", "protocol": "All transfections were performed in triplicate."}, "[3]": {"system": "THP-1 or peripheral blood mononuclear cells (PBMC)", "assay": "LPS induced secretion of TNF-α and IL-1β in THP-1 or PBMC (summary statement)", "assay_type": "cell-based, human", "protocol": "as §1"}, "MSK1": {"molecular_target": "MSK1 (Homo sapiens, UniProt O75582)", "sequence (O75582 whole entry)": "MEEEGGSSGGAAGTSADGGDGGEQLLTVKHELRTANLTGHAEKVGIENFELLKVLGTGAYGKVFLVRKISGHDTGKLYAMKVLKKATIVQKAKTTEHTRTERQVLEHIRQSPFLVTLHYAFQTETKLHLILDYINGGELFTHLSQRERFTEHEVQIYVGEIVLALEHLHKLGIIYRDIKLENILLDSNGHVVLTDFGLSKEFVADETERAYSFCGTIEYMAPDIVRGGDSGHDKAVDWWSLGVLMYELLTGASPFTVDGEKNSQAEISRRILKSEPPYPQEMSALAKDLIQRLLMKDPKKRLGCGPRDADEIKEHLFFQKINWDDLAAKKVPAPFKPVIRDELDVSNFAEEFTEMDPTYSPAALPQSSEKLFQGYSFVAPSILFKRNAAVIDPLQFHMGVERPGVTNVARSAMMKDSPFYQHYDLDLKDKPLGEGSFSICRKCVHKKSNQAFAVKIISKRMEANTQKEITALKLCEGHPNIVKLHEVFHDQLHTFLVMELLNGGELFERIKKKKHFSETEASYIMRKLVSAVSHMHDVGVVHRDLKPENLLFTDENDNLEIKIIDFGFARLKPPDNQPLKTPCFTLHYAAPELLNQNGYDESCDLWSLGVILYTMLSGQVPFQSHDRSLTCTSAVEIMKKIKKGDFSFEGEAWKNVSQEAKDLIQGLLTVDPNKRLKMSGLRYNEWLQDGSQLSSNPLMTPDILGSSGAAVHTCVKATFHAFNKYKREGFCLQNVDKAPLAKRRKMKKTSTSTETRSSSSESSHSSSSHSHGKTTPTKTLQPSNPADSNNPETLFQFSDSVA", "conditions": "from reference (5); cited from earlier work"}}}
{"compound": "C[S+]([O-])c1ccc(-c2nc(-c3ccncc3)c(-c3ccc(F)cc3)[nH]2)cc1", "note": "(stereo not drawn) [SB203580]", "values": [{"measurement": "inhibition at 1 µM", "setting": "TNF-α secretion in PBMC; Homo sapiens, read-out: inhibition of secretion of TNF-α", "value": "40 to 60", "unit": "%"}, {"measurement": "inhibition at 1 µM", "setting": "IL-1β secretion in PBMC; Homo sapiens, read-out: inhibition of secretion of IL-1β", "value": "40 to 60", "unit": "%"}, {"measurement": "inhibition at 1 µM", "setting": "[1]; Homo sapiens, THP-1, read-out: inhibition of secretion of TNF-α", "value": 30, "unit": "%"}, {"measurement": "reporter gene (luciferase) activity, % of the control value", "setting": "[2]", "value": 49, "unit": "%"}]}
{"compound": "Cn1cc(C2=C(c3cn(CCCSC(=N)N)c4ccccc34)C(=O)NC2=O)c2ccccc21", "note": "[Ro318220]", "values": [{"measurement": "inhibition of secretion of TNF-α", "setting": "TNF-α secretion in PBMC; 1 μM compound", "value": "approximately 90%"}, {"measurement": "inhibition of secretion of IL-1β", "setting": "IL-1β secretion in PBMC; 1 μM compound", "value": "approximately 90%"}, {"measurement": "inhibition of secretion of TNF-α", "setting": "[1]", "value": 50, "unit": "%"}, {"measurement": "reporter gene (luciferase) activity, % of the control value", "setting": "[2]", "value": 15, "unit": "%"}, {"measurement": "LPS induced NFκB transcriptional activity", "setting": "[2]; THP-1 cells, summary statement", "value": "strongly inhibited"}, {"measurement": "LPS induced secretion of TNF-α and IL-1β", "setting": "[3]", "value": "strongly inhibited"}, {"measurement": "inhibition of MSK1 activity in vitro", "setting": "MSK1", "value": "potent inhibitor"}]}
{"compound": "COc1cccc(-c2cc(=O)c3ccccc3o2)c1N", "note": "[PD98059]", "values": [{"measurement": "inhibition of secretion of TNF-α", "setting": "TNF-α secretion in PBMC; 10 μM compound", "value": "about 40%"}, {"measurement": "inhibition of secretion of IL-1β", "setting": "IL-1β secretion in PBMC; 10 μM compound", "value": "about 40%"}, {"measurement": "inhibition of secretion of TNF-α", "setting": "[1]", "value": 5, "unit": "%"}, {"measurement": "reporter gene (luciferase) activity, % of the control value", "setting": "[2]", "value": "no effect"}]}
